Results taken from patent US11236106B2, “Cycloalkane-1,3-diamine derivative” (Daiichi Sankyo Company, Limited, priority 2018, dated 2022).
Counter-ions that a name gives are not always drawn. Like-named read-outs stand apart in the source and are kept apart here.

Experiments:
K562 cells = experiment: cells; details: Homo sapiens
Description: (§1) RPMI1640 medium supplemented with 10% FBS was used as a culture medium for each cells (MV-4-11, MOLM-13 cells, human AML cells, K562 cells, human CML cells). […] The prepared drug-containing plate was stored at −30° C. until use, and thawed before use.
(§2) The suspension of each cells was prepared with 10% FBS RPMI1640 culture medium so as to be 1000 cells/mL (K562) or 10000 cells/mL (MV-4-11, MOLM-13), and seeded on the drug-containing plate (40 μL/well) (day 0). The cells were cultured for additional 3 or 7 days. ATP measurement reagent (CellTiter-Glo (registered trademark, Promega Corporation) 2.0 Assay, model number G9242, Promega Corporation) was added to each well at 10 μL/well, on the day of the drug addition (day 0) and 3 days (day 3) or 7 days (day 7) after the drug addition. After affixing a black sticker on the bottom surface, the mixture was stirred using a microplate mixing deaeration machine (model name, Weltornado FK-62, Sakaki Dengyo Co., Ltd.) (stirring conditions, revolution 9, rotation 7, time 12).
(§3) The cell growth of the drug-added group from day 0 to day 3 or day 7 was calculated as T/C %, when the cell growth of the drug-free group was considered as 100%.

MV-4-11 cells [1] = experiment: cells; details: Homo sapiens
Description: as §1, §2, §3

MOLM-13 cells = experiment: cells; details: Homo sapiens
Description: as §1, §2, §3

[2] = target: T1, menin and MLL (menin, Flag tagged; biotinylated MLL1 peptide 1-46aa) (Homo sapiens, UniProt O00255); experiment: biochemical; details: 1 nM menin, 10 nM biotinylated MLL1 peptide, AlphaLISA
T1 sequence (O00255 1-610): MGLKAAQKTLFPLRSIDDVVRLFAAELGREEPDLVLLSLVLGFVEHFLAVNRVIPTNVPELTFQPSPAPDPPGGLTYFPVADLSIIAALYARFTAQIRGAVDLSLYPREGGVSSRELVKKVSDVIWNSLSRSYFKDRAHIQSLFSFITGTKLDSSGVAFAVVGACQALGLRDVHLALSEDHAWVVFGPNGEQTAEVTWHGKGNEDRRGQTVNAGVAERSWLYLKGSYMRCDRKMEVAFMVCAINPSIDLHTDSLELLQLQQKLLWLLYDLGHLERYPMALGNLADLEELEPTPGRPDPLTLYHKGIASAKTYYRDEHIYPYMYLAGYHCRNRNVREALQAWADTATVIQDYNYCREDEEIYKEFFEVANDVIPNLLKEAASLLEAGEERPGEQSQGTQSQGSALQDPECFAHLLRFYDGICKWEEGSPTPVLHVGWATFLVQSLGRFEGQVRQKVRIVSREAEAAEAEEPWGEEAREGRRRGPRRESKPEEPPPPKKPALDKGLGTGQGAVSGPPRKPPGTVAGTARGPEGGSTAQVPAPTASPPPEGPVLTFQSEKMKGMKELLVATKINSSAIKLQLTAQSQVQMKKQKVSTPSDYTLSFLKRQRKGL
Description: Then, the fluorescence signal by AlphaLISA (registered trademark, PerkinElmer Co., Ltd.) was measured using a plate reader (PerkinElmer Co., Ltd., EnVisionXcite).

MV-4-11 cells [3] = details: Exp. Ex. 3-3, oral, 31 days after transplantation
Description: MV-4-11 cells were purchased from ATCC. The female FOX CHASE SCID C.B.17/Icr-scid/scidJcl mice were purchased from Claire Japan. […] The compound was administered as a suspension in 0.5% MC. For the compound-free group, 0.5% MC was administered as a solvent. The estimated individual tumor volume was measured from the day of the grouping to 31 days after the transplantation (test end date).
Tumor growth inhibitory rate %=(1−TVCt/TVCc)×100 TVC=(Individual tumor volume on the test end date)−(Individual tumor volume on the grouping date) TVCt: TVC mean value of the compound administration group TVCc: TVC mean value of the compound-free group

[4] = system: MLL-AF9-overexpressing AML-like cells (MA9 cells); experiment: Differentiation-inducing activity in MLL-AF9-overexpressing AML-like cells (flow cytometry of Gr-1 and cKit); format: cell-based, mouse; details: 7 days, 5 or 20 nM (Ex. 25, 27), 150 or 300 nM (Ex. 26), 50 or 100 nM (Ex. 22); for rate of the myeloid cell differentiation antigen Gr-1-expressing cells in living cells: versus control group (FIG. 10); for rate of the cKit-expressing cells in living cells: versus control group (FIG. 11)
Description: The human MLL-AF9 fusion gene was introduced into cKit-positive mononuclear cells isolated from the myeloid of C57BL6 mouse, by retrovirus infection. MLL-AF9-overexpressing AML-like cells (MA9 cells) that acquired abnormal growth ability were established by liquid-culturing the cells after virus infection for a long period of time. Serum-free medium (GlutaMax, P/S, Stem Pro-34 medium containing 10 ng/ml mIL-3, ng/mL mSCF and 10 ng/mL human Oncostatin M) was used as a culture medium.
For the control group, DMSO was added thereto at a final concentration of 0.1% (2 μL/well) (day 0). After culturing for 7 days (day 7), the cells were collected, and blocked with 5% FBS/PBS containing 10% Mouse BD Fc Block (BD) for 10 minutes at room temperature, and then any of various antibodies (Gr-1-FITC or CD117 (cKit)-APC: Biolegend) was added thereto at a final concentration of 0.4 μg/sample, and the mixture was reacted on ice for 30 minutes. Then, dead cell staining dye DAPI (0.2 mg/mL) was added thereto at so as to be […], and the reaction was carried out on ice for additional 2 minutes under shading. Then, the expression level of each surface antigen of the cells was measured by NovoCyte flow cytometer (LMS). The obtained data were analyzed by FlowJo software (Becton Dickinson), and the rate of each surface antigen-expressing cells in the living cells excluding dead cells was graphed.

[5] = K562, 72 h, read-out: GI50 (μM) Day3 K562
[6] = K562, 168 h, read-out: GI50 (μM) Day7 K562
[7] = MV4-11, 72 h, read-out: GI50 (μM) Day3 MV4;11
[8] = MV4-11, 168 h, read-out: GI50 (μM) Day7 MV4;11
[9] = MOLM-13, 72 h, read-out: GI50 (μM) Day3 MOLM-13
[10] = MOLM-13, 168 h, read-out: GI50 (μM) Day7 MOLM-13
[11] = IC50, binding inhibitory activity between menin and MLL

SMILES | GI50 (K562 cells; [5]) | GI50 (K562 cells; [6]) | GI50 (MV-4-11 cells [1]; [7]) | GI50 (MV-4-11 cells [1]; [8]) | GI50 (MOLM-13 cells; [9]) | GI50 (MOLM-13 cells; [10]) | IC50 ([2]; cell free IC50 (nM)) | other results
COc1cncc(-c2ccc(CN[C@@H]3C[C@H](Nc4ncnc5sc(CC(F)(F)F)cc45)C[C@H](c4ncco4)C3)cc2)c1 (single isomer, unassigned) [Example 19A, Hydrochloride] | 5.51 µM | 5.39 µM | 0.489 µM | 0.295 µM | 3.2 µM | 0.906 µM | 33.5 nM | 
CC(N[C@H]1CC[C@@H](N(C)c2ncnc3sc(CC(F)(F)F)cc23)C1)c1ccccc1 (mixture of isomers) [Example 33, (1R,3S)-N^1-methyl-N^3-(1-phenylethyl)-N^1-[6-(2,2,2-trifluoroethyl)thieno[2,3-d]pyrimidin-4-yl]cyclopentane-1,3-diamine (diastereomer mixture)] | 6.44 µM |  | 5.22 µM |  | 4.82 µM |  | 2420 nM | 
COc1cncc(-c2ccc(CN[C@H]3C[C@@H](Nc4ncnc5sc(CC(F)(F)F)cc45)C[C@@H](c4ncco4)C3)cc2)c1 (single isomer, unassigned) [Example 19B, Hydrochloride] | 5.45 µM | 5.41 µM | 3.18 µM | 2.6 µM | 4.03 µM | 5.75 µM | 1810 nM | 
COc1cc(-c2ccc(CN[C@H]3C[C@@H](O)[C@@H](N(C)c4ncnc5sc(CC(F)(F)F)cc45)C3)cc2)cnc1F.Cl [Example 68, (1R,2S,4R)-4-({[4-(6-fluoro-5-methoxypyridin-3-yl)phenyl]methyl}amino)-2-{methyl[6-(2,2,2-trifluoroethyl)thieno[2,3-d]pyrimidin-4-yl]amino}cyclopentan-1-ol hydrochloride] |  |  |  |  |  |  |  | Estimated tumor volume (test end date) Mean ± S.E. (MV-4-11 cells [3]; qdx17, 25 mg/kg/day): 1151 ± 142; Estimated tumor volume (test end date) Mean ± S.E. (MV-4-11 cells [3]; qdx17, 50 mg/kg/day): 559 ± 104; Estimated tumor volume (test end date) Mean ± S.E. (MV-4-11 cells [3]; qdx17, 100 mg/kg/day): 31 ± 23; IC50 [2, 11]: 1.7 nM
COc1cncc(-c2ccc(CN[C@H]3C[C@@H](Nc4ncnc5sc(CC(F)(F)F)cc45)C[C@@H](OC)C3)cc2)c1 (single isomer, unassigned) [Example 18B, Hydrochloride] | 5.18 µM | 4.71 µM | 2.16 µM | 1.47 µM | 3.08 µM | 3.97 µM | 182 nM | 
COc1nc(N(C)[C@H]2C[C@@H](NCc3ccc(-c4cc(OC)c(OC)nn4)cc3)C[C@H]2O)c2cc(CC(F)(F)F)sc2n1 [Example 27, (1R,2S,4R)-4-({[4-(5,6-dimethoxypyridazin-3-yl)phenyl]methyl}amino)-2-{[2-methoxy-6-(2,2,2-trifluoroethyl)thieno[2,3-d]pyrimidin-4-yl](methyl)amino}cyclopentan-1-ol Hydrochloride] |  |  |  |  |  |  | 1.3 nM | rate of the myeloid cell differentiation antigen Gr-1-expressing cells in living cells [4]: increased the rate of Gr-1-positive cells; rate of the cKit-expressing cells in living cells [4]: reduced the rate of cKit-positive cells
COc1cc(-c2ccc(CN[C@H]3C[C@@H](O)[C@@H](N(C)c4ncncc4Oc4ccc(F)c(F)c4C(=O)N(C(C)C)C(C)C)C3)cc2)nnc1OC [Example 104, 6-[(4-{[(1S,2R,4R)-4-({[4-(5,6-dimethoxypyridazin-3-yl)phenyl]methyl}amino)-2-hydroxycyclopentyl](methyl)amino}pyrimidin-5-yl)oxy]-2,3-difluoro-N,N-di(propan-2-yl)benzamide hydrochloride] |  |  |  |  |  |  |  | GI50 (K562 cells; K562, 72 h, read-out: GI50, cell growth inhibitory activity, K562, day 3): > 5 µM; GI50 (K562 cells; K562, 168 h, read-out: GI50, cell growth inhibitory activity, K562, day 7): > 5 µM; GI50 (MV-4-11 cells [1]; MV4-11, 72 h, read-out: GI50, cell growth inhibitory activity, MV-4-11, day 3): 0.097 µM; GI50 (MV-4-11 cells [1]; MV4-11, 168 h, read-out: GI50, cell growth inhibitory activity, MV-4-11, day 7): 0.066 µM; GI50 (MOLM-13 cells; MOLM-13, 72 h, read-out: GI50, cell growth inhibitory activity, MOLM-13, day 3): 0.7 µM; GI50 (MOLM-13 cells; MOLM-13, 168 h, read-out: GI50, cell growth inhibitory activity, MOLM-13, day 7): 0.187 µM; IC50 [2, 11]: 6.3 nM
COc1cncc(-c2ccc(CN[C@@H]3C[C@H](Nc4ncnc5sc(CC(F)(F)F)cc45)C[C@H](OC)C3)cc2)c1 (single isomer, unassigned) [Example 18A, Hydrochloride] | 5.7 µM | 5.01 µM | 0.26 µM | 0.131 µM | 2.83 µM | 0.448 µM | 10.3 nM | 
CN(c1ncnc2sc(CC(F)(F)F)cc12)[C@H]1C[C@@H](NCc2ccc(-c3cccc4c3cnn4S(C)(=O)=O)cc2)C[C@H]1O [Example 23, (1R,2S,4R)-4-[({4-[1-(methanesulfonyl)-1H-indazol-4-yl]phenyl}methyl)amino]-2-{methyl[6-(2,2,2-trifluoroethyl)thieno[2,3-d]pyrimidin-4-yl]amino}cyclopentan-1-ol Hydrochloride] |  |  |  |  |  |  | 2.8 nM | Estimated tumor volume (test end date) Mean ± S.E. (MV-4-11 cells [3]; qdx17, 25 mg/kg/day): 616 ± 86; Estimated tumor volume (test end date) Mean ± S.E. (MV-4-11 cells [3]; qdx17, 50 mg/kg/day): 31 ± 10; Estimated tumor volume (test end date) Mean ± S.E. (MV-4-11 cells [3]; qdx17, 100 mg/kg/day): 0 ± 0
COc1cc(-c2ccc(CN[C@H]3C[C@@H](O)[C@@H](N(C)c4ncnc5sc(CC(F)(F)F)cc45)C3)cc2)cnc1C#N [Example 22, 5-[4-({[(1R,3R,4S)-3-hydroxy-4-{methyl[6-(2,2,2-trifluoroethyl)thieno[2,3-d]pyrimidin-4-yl]amino}cyclopentyl]amino}methyl)phenyl]-3-methoxypyridine-2-carbonitrile Hydrochloride] |  |  |  |  |  |  | 3.8 nM | rate of the myeloid cell differentiation antigen Gr-1-expressing cells in living cells [4]: increased the rate of Gr-1-positive cells; rate of the cKit-expressing cells in living cells [4]: reduced the rate of cKit-positive cells
COc1cc(-c2ccc(CN[C@H]3C[C@@H](O)[C@@H](N(C)c4ncncc4Oc4ccc(F)cc4-c4ccnn4C(C)C)C3)cc2)nnc1OC [Example 102, (1R,2S,4R)-4-({[4-(5,6-dimethoxypyridazin-3-yl)phenyl]methyl}amino)-2-[(5-{4-fluoro-2-[1-(propan-2-yl)-1H-pyrazol-5-yl]phenoxy}pyrimidin-4-yl)(methyl)amino]cyclopentan-1-ol hydrochloride] |  |  |  |  |  |  |  | IC50 [2, 11]: 2.7 nM
